Consider five molecules from ChEMBL document CHEMBL1201862, “PubChem BioAssay data set” (2004).

Where a name gives a salt, the structure may show the parent alone. The source made the active and inactive calls.

Assay [1] can be described thus: Luminescence-based cell-based high throughput dose response assay to identify activators of the DAF-12 from the parasite S. stercoralis (ssDAF-12). In kind it is functional.
Assay [2] deals with T1, Oxysterols receptor LXR-beta (Homo sapiens, UniProt P55055).
T1 sequence (P55055 whole entry): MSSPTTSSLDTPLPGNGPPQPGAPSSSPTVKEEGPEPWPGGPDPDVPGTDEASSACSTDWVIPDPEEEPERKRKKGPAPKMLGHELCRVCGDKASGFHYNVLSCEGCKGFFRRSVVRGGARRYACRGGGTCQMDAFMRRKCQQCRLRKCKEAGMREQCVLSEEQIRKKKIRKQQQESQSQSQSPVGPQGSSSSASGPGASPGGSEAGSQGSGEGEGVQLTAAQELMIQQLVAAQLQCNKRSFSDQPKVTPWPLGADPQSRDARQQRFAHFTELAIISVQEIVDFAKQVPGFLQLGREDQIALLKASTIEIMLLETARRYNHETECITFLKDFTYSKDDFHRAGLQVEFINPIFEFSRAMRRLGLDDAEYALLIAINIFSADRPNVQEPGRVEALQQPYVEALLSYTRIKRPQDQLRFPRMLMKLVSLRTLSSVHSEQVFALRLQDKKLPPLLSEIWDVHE
The experiment in a line: LXR agonists, Gal4 luciferase reporter, dose response, counter-screen for ssDAF-12 agonist project, cell-based, luminescence, HEK293, S. stercoralis campaign (AID 720737). In kind it is functional. The settings on record: read-out: IC50 (the source's name). A general note: In a reporter assay the amount or activity of a reporter protein is the signal.

Assay [3] in a line: viability loss in Vero cells – cytotoxicity control for Vif-APOBEC3G degradation inhibitor project, dose response (AID 1117358). Format: functional. The settings on record: Vero.
Assay [4] can be described thus: cells. In kind it is functional, cell-based. The note with it: INS-1E.
Assay [5] can be described thus: IC50 of insulin release inhibition, rat insulinoma INS-1E line, 5 mM glucose, cell-based (AID 1117331). In kind it is functional.
A short description of assay [6]: glucagon-like peptide-1 release potency in STC-1, concentration-response, half-maximal inhibitory concentration in the STC-1 line (AID 1117345). In kind it is functional, cell-based.
Assay [7] in a line: Potency on glucagon-like peptide 1 release, dose-response in NCI-H716 cell line, half maximal inhibitory concentration (AID 1117344). Format: functional, cell-based.
Assay [8] concerns the target T1, Oxysterols receptor LXR-beta. Format: functional, cell-based.
Assay [9] is described as follows: viability loss in HepG2 hepatoma cells – cell-based, ATP luminescence, cherry-pick, activator set 2, cytotoxicity control, dose response (AID 1053143). In kind it is functional.
A short description of assay [10]: cells.

For orientation: IC50 means the concentration that gives 50% inhibition. Take `Cc1ccccc1C(=O)N/N=C1/SCC(=O)N1Cc1ccccc1`: the IC50 in assay [1] was > 67.5 µM (inactive). Moreover, the EC50 in assay [2] is > 67.5 µM (inactive).
The term CC50 denotes the concentration that lowers cell viability or growth by half. Turning to `C=CCOc1ccc(Br)cc1/C=N/O`, in assay [3], the CC50 was 2.72 µM (active).
For `CN(C)C/C=C(/c1ccc(Br)cc1)c1cccnc1` [ZIMELDINE HYDROCHLORIDE], the IC50 in assay [4] was > 33.3 µM (inactive); in assay [5], 8.36 µM (inactive).
Take `CC(=O)NO` [ACETOHYDROXAMIC ACID]: the IC50 in assay [6] and in assay [7] was > 40 µM (inactive) in each case.
For orientation: AC50 means the concentration giving half of the maximal activity seen. For `Oc1ccccc1-c1cc(-c2ccccc2)[nH]n1`, in assay [1], the IC50 was > 67.4 µM (inactive). The EC50 in assay [8], in assay [10] and in assay [2] was > 67.4 µM (inactive) in each case. In addition, the AC50 in [9] was 26 µM (active).
